In patent US20130072383A1, “METHOD FOR ANTI-SPROUTING AND POSSIBLY FUNGICIDAL TREATMENT OF BULBS AND/OR TUBERS USING CLOVE OIL AND MINT OIL” (priority 2010, published 2013):

Tested on: Bintje, Nicola and Charlotte potatoes
Assay: Sprout-inhibiting treatment of stored potatoes over 6 months, sprout weights (Example 1)
Assay type: in vivo
Details: used alone
Description: The sprout-inhibiting treatments were carried out over a 6-month period.
The mint oil used contained about 70% L-carvone and the clove oil used contained about 90% eugenol.
The tested potatoes were Bintje, Nicola and Charlotte varieties.
An anti-sprouting composition A consisting of a mixture of clove oil (supplied by Charabot (Grasse)/ mint oil (supplied by Charabot (Grasse) at 2:1 v/v was prepared. The densities of mint and clove are respectively 0.94 and 1.04. This composition was applied to the potatoes using Electrofog Xeda 3000 equipment at an output temperature of 210° C., • at an initial dose of 90 grams of composition per tonne of potatoes, • at subsequent doses of 30 grams of composition per tonne of potatoes every three weeks.
For comparison, some potatoes were treated: • B: either with mint oil alone
at an initial dose of 90 grams of mint oil per tonne of potatoes,
at subsequent doses of 30 grams of mint oil per tonne of potatoes every three weeks; • C: or with clove oil alone
at an initial dose of 90 grams of clove oil per tonne of potatoes,
at subsequent doses of 30 grams of clove oil per tonne of potatoes every three weeks; • D: or with CIPC (Xedamate Aerosol 88 containing 20% CIPC) by thermal fogging:
at an initial dose of 60 grams of Xedamate Aerosol 88 per tonne of potatoes, […]

How did the “Anti-sprouting activity relative to reference product CIPC” value turn out when L-carvone was run?
The value was “comparable with the reference product (CIPC)”.
